Reference: ChEMBL document CHEMBL1201862, “PubChem BioAssay data set” (2004)
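A five-concentration, 48-hour dose response in 96-well plates underlies each endpoint, interpolated linearly between surrounding concentrations. GI50 = concentration required for 50% inhibition of growth.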 Active and inactive are the calls of the source. Rule as the data show it: active = GI50 up to about 1.1 µM and inactive = higher.

Key:
Experiment in all cases: DTP human tumour cell line panel, 48 h
MOLT-4 = system: MOLT-4
SF-539 = system: SF-539
UO-31 = system: UO-31
EKVX = system: EKVX
SF-268 = system: SF-268
SNB-19 = system: SNB-19
SK-MEL-5 = system: SK-MEL-5
HT-29 = system: HT-29
OVCAR-8 = system: OVCAR-8
HCC 2998 = system: HCC 2998
CCRF-CEM = system: CCRF-CEM
HCT-15 = system: HCT-15
SN12C = system: SN12C
OVCAR-3 = system: OVCAR-3
NCI-H23 = system: NCI-H23
M14 = system: M14
UACC-62 = system: UACC-62
CAKI-1 = system: CAKI-1
UACC-257 = system: UACC-257
TK-10 = system: TK-10
NCI-H226 = system: NCI-H226
Malme-3M = system: Malme-3M
HCT-116 = system: HCT-116
SK-MEL-28 = system: SK-MEL-28
DMS-273 = system: DMS-273
SF-295 = system: SF-295
U-251 = system: U-251
COLO 205 = system: COLO 205
A549 = system: A549
DMS-114 = system: DMS-114
KM12 = system: KM12
OVCAR-4 = system: OVCAR-4
ACHN = system: ACHN
HOP-62 = system: HOP-62
M19-MEL = system: M19-MEL
SR = system: SR
NCI-H522 = system: NCI-H522
SW-620 = system: SW-620
LXFL 529 = system: LXFL 529
K562 = system: K562
SK-MEL-2 = system: SK-MEL-2
DLD-1 = system: DLD-1
786-0 = system: 786-0
IGROV-1 = system: IGROV-1
A498 = system: A498
NCI-H460 = system: NCI-H460
SK-OV-3 = system: SK-OV-3
HL-60 = system: HL-60
SNB-75 = system: SNB-75
OVCAR-5 = system: OVCAR-5
RPMI-8226 = system: RPMI-8226
LOX IMVI = system: LOX IMVI
MCF7 = system: MCF7
RXF 393 = system: RXF 393
T47D = system: T47D
HOP-92 = system: HOP-92
BT-549 = system: BT-549
PC-3 = system: PC-3
DU-145 = system: DU-145
NCI/ADR-RES = system: NCI/ADR-RES
MDA-MB-435 = system: MDA-MB-435
MDA-N = system: MDA-N
MDA-MB-231 = system: MDA-MB-231
Hs-578T = system: Hs-578T

Compound: CCOC(=O)C(Cc1ccccc1)NC(=O)c1ccc(/N=N/N(C)C)cc1 (configuration not stated)
- GI50 (MOLT-4): > 100 µM (inactive)
- GI50 (SF-539): > 100 µM (inactive)
- GI50 (UO-31): > 100 µM (inactive)
- GI50 (EKVX): > 100 µM (inactive)
- GI50 (SF-268): > 100 µM (inactive)
- GI50 (SNB-19): > 100 µM (inactive)
- GI50 (SK-MEL-5): > 100 µM (inactive)
- GI50 (HT-29): > 100 µM (inactive)
- GI50 (OVCAR-8): > 100 µM (inactive)
- GI50 (HCC 2998): > 100 µM (inactive)
- GI50 (CCRF-CEM): > 100 µM (inactive)
- GI50 (HCT-15): > 100 µM
- GI50 (SN12C): > 100 µM (inactive)
- GI50 (OVCAR-3): > 100 µM (inactive)
- GI50 (NCI-H23): > 100 µM (inactive)
- GI50 (M14): > 100 µM (inactive)
- GI50 (UACC-62): > 100 µM (inactive)
- GI50 (CAKI-1): > 100 µM (inactive)
- GI50 (UACC-257): > 100 µM (inactive)
- GI50 (TK-10): > 100 µM (inactive)
- GI50 (NCI-H226): > 100 µM (inactive)
- GI50 (Malme-3M): > 100 µM (inactive)
- GI50 (HCT-116): > 100 µM (inactive)
- GI50 (SK-MEL-28): > 100 µM (inactive)
- GI50 (DMS-273): > 100 µM (inactive)
- GI50 (SF-295): > 100 µM (inactive)
- GI50 (U-251): > 100 µM (inactive)
- GI50 (COLO 205): > 100 µM (inactive)
- GI50 (A549): > 100 µM (inactive)
- GI50 (DMS-114): > 100 µM (inactive)
- GI50 (KM12): > 100 µM (inactive)
- GI50 (OVCAR-4): > 100 µM (inactive)
- GI50 (ACHN): > 100 µM (inactive)
- GI50 (HOP-62): > 100 µM (inactive)
- GI50 (M19-MEL): > 100 µM (inactive)
- GI50 (SR): > 100 µM (inactive)
- GI50 (NCI-H522): > 100 µM (inactive)
- GI50 (SW-620): > 100 µM (inactive)
- GI50 (LXFL 529): > 100 µM (inactive)
- GI50 (K562): > 100 µM (inactive)
- GI50 (SK-MEL-2): > 100 µM (inactive)
- GI50 (DLD-1): > 100 µM (inactive)
- GI50 (786-0): > 100 µM (inactive)
- GI50 (IGROV-1): > 100 µM (inactive)
- GI50 (A498): > 100 µM (inactive)
- GI50 (NCI-H460): > 100 µM (inactive)
- GI50 (SK-OV-3): > 100 µM (inactive)
- GI50 (HL-60): > 100 µM (inactive)
- GI50 (SNB-75): > 100 µM (inactive)
- GI50 (OVCAR-5): > 100 µM (inactive)
- GI50 (RPMI-8226): > 100 µM (inactive)
- GI50 (LOX IMVI): > 100 µM (inactive)

Compound: CCN(CC)CC[n+]1ccc2c(C)c3[nH]c4ccccc4c3c(C)c2c1
- GI50 (MOLT-4): 0.182 µM (active)
- GI50 (SF-539): 0.413 µM (active)
- GI50 (EKVX): 0.982 µM (active)
- GI50 (MCF7): 0.678 µM (active)
- GI50 (SF-268): 0.222 µM (active)
- GI50 (SNB-19): 0.17 µM (active)
- GI50 (SK-MEL-5): 0.337 µM (active)
- GI50 (HT-29): 0.518 µM (active)
- GI50 (HCC 2998): 0.319 µM (active)
- GI50 (CCRF-CEM): 0.219 µM (active)
- GI50 (HCT-15): 16.3 µM
- GI50 (SN12C): 0.222 µM (active)
- GI50 (OVCAR-3): 0.213 µM (active)
- GI50 (NCI-H23): 0.292 µM (active)
- GI50 (CAKI-1): 1.11 µM (active)
- GI50 (UACC-257): 0.565 µM (active)
- GI50 (Malme-3M): 0.583 µM (active)
- GI50 (SK-MEL-28): 0.352 µM (active)
- GI50 (DMS-273): 0.315 µM (active)
- GI50 (SF-295): 0.701 µM (active)
- GI50 (U-251): 0.173 µM (active)
- GI50 (KM12): 0.385 µM (active)
- GI50 (HOP-62): 0.953 µM (active)
- GI50 (NCI-H522): 0.211 µM (active)
- GI50 (SW-620): 0.445 µM (active)
- GI50 (K562): 0.182 µM (active)
- GI50 (SK-MEL-2): 0.465 µM (active)
- GI50 (RXF 393): 2.09 µM (inactive)
- GI50 (DLD-1): 1.67 µM (inactive)
- GI50 (A498): 5.19 µM (inactive)
- GI50 (NCI-H460): 0.451 µM (active)
- GI50 (HL-60): 0.31 µM (active)
- GI50 (SNB-75): 0.251 µM (active)
- GI50 (OVCAR-5): 1.14 µM (inactive)
- GI50 (RPMI-8226): 0.644 µM (active)
- GI50 (LOX IMVI): 0.399 µM (active)

Compound: N#CCCN(CCC#N)c1ccc(/C=C2\SC(=S)NC2=O)cc1Br
- GI50 (MOLT-4): > 100 µM (inactive)
- GI50 (T47D): > 100 µM (inactive)
- GI50 (SF-539): > 100 µM (inactive)
- GI50 (UO-31): > 100 µM (inactive)
- GI50 (EKVX): 46.9 µM (inactive)
- GI50 (MCF7): > 100 µM (inactive)
- GI50 (SF-268): 20.9 µM (inactive)
- GI50 (SNB-19): 23.8 µM (inactive)
- GI50 (SK-MEL-5): > 100 µM (inactive)
- GI50 (HT-29): > 100 µM (inactive)
- GI50 (OVCAR-8): 68.5 µM (inactive)
- GI50 (HOP-92): 50.5 µM (inactive)
- GI50 (HCC 2998): > 100 µM (inactive)
- GI50 (CCRF-CEM): > 100 µM (inactive)
- GI50 (BT-549): 37.3 µM (inactive)
- GI50 (HCT-15): > 100 µM
- GI50 (SN12C): > 100 µM (inactive)
- GI50 (OVCAR-3): > 100 µM (inactive)
- GI50 (NCI-H23): > 100 µM (inactive)
- GI50 (M14): > 100 µM (inactive)
- GI50 (UACC-62): > 100 µM (inactive)
- GI50 (CAKI-1): > 100 µM (inactive)
- GI50 (UACC-257): > 100 µM (inactive)
- GI50 (PC-3): > 100 µM (inactive)
- GI50 (DU-145): > 100 µM (inactive)
- GI50 (TK-10): > 100 µM (inactive)
- GI50 (NCI-H226): > 100 µM (inactive)
- GI50 (Malme-3M): 16.9 µM (inactive)
- GI50 (HCT-116): > 100 µM (inactive)
- GI50 (SK-MEL-28): > 100 µM (inactive)
- GI50 (NCI/ADR-RES): > 100 µM (inactive)
- GI50 (SF-295): 27.9 µM (inactive)
- GI50 (U-251): 17.3 µM (inactive)
- GI50 (COLO 205): > 100 µM (inactive)
- GI50 (A549): > 100 µM (inactive)
- GI50 (KM12): 66.7 µM (inactive)
- GI50 (OVCAR-4): 85.1 µM (inactive)
- GI50 (ACHN): 67.9 µM (inactive)
- GI50 (HOP-62): 15.3 µM (inactive)
- GI50 (SR): > 100 µM (inactive)
- GI50 (NCI-H522): 76 µM (inactive)
- GI50 (SW-620): > 100 µM (inactive)
- GI50 (K562): > 100 µM (inactive)
- GI50 (MDA-MB-435): > 100 µM (inactive)
- GI50 (MDA-N): > 100 µM (inactive)
- GI50 (SK-MEL-2): > 100 µM (inactive)
- GI50 (RXF 393): 86.3 µM (inactive)
- GI50 (786-0): 37.8 µM (inactive)
- GI50 (IGROV-1): 72.1 µM (inactive)
- GI50 (A498): 33.3 µM (inactive)
- GI50 (NCI-H460): > 100 µM (inactive)
- GI50 (MDA-MB-231): 25.9 µM (inactive)
- GI50 (SK-OV-3): 28.6 µM (inactive)
- GI50 (HL-60): 79.8 µM (inactive)
- GI50 (SNB-75): 17.8 µM (inactive)
- GI50 (Hs-578T): 0.598 µM (active)
- GI50 (OVCAR-5): > 100 µM (inactive)
- GI50 (RPMI-8226): > 100 µM (inactive)
- GI50 (LOX IMVI): 23.1 µM (inactive)
